# Measured values as given in patent US11780893B2, “Kv1.3 blockers” (Zealand Pharma A/S, priority 2019, dated 2023).
# Bridge positions count the residues as written; N and C are the ends. Peptide text beside a SMILES is read from it.
# Molecular target: T1, human Kv1.3 voltage-gated K+ channel (Homo sapiens, UniProt P22001)
# T1 construct: host or cells: CHO-DUKX
# Experiment: cell-based
# Conditions: inhibition of thallium flux, CHO-DUKX cells with human Kv1.3; read-out: IC50
# T1 sequence (P22001 whole entry): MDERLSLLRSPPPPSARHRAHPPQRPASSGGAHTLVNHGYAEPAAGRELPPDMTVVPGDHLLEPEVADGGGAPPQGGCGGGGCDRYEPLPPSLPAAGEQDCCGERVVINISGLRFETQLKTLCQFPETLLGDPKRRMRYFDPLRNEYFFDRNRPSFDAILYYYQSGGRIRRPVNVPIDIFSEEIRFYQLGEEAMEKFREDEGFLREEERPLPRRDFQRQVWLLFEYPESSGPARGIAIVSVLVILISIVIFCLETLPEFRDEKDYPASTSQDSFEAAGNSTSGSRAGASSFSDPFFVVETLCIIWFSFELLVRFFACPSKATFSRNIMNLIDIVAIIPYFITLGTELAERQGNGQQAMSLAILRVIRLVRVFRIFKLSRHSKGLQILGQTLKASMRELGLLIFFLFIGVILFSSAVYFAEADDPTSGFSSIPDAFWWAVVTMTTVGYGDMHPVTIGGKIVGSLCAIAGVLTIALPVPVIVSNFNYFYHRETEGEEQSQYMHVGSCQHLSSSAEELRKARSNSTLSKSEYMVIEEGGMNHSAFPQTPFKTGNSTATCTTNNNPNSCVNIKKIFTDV
row,Compound,IC50 [nM]
1,"CC[C@H](C)[C@@H]1NC(=O)[C@H](C)NC(=O)[C@H](CCCCN)NC(=O)[C@H](CC(C)C)NC(=O)[C@@H]2CSSC[C@@H](C(=O)N[C@@H](Cc3ccc(O)cc3)C(=O)N3CCC[C@H]3C(=O)N[C@@H](CCCNC(=N)N)C(=O)O)NC(=O)[C@H](CCCCN)NC(=O)[C@@H]3CSSC[C@H](NC(=O)[C@H](CCC(=O)O)NC(=O)[C@H](C(C)C)NC(=O)[C@H](CO)NC(=O)[C@H](C)NC(=O)[C@H](CO)NC(=O)[C@@H](NC(=O)[C@H](CCCNC(=N)N)NC(=O)[C@H](CCSC)NC(=O)[C@H](CC(=O)O)NC(=O)[C@H](CCSC)NC(=O)[C@@H](N)CC(N)=O)CSSC[C@H](NC(=O)[C@H](CCCCN)NC(=O)CNC(=O)[C@H](Cc4ccccc4)NC(=O)CNC(=O)[C@H](CCCNC(=N)N)NC(=O)CNC1=O)C(=O)N[C@@H](CCSC)C(=O)N[C@@H](CC(N)=O)C(=O)N[C@@H](CCCCN)C(=O)N[C@@H](CCCCN)C(=O)N3)C(=O)N[C@@H](CCCCN)C(=O)N[C@@H](CCC(N)=O)C(=O)N[C@@H](CCCCN)C(=O)N2 [Compound 4] (H-NMDMRCSASVECKQKCLKAIGRGFGKCMNKKCKCYPR-OH; disulfide 6-27, 12-32, 16-34)",0.29
2,"CC[C@H](C)[C@@H]1NC(=O)[C@H](C)NC(=O)[C@H](CCCCN)NC(=O)[C@H](CC(C)C)NC(=O)[C@@H]2CSSC[C@@H](C(=O)N[C@@H](Cc3ccc(O)cc3)C(=O)N3CCC[C@H]3C(=O)N[C@@H](CCCNC(=N)N)C(=O)O)NC(=O)[C@H](CCCCN)NC(=O)[C@@H]3CSSC[C@H](NC(=O)[C@H](CCC(=O)O)NC(=O)[C@H](C(C)C)NC(=O)[C@H](CO)NC(=O)[C@H](C)NC(=O)[C@H](CO)NC(=O)[C@@H](NC(=O)[C@H](CCCNC(=N)N)NC(=O)[C@H](CCSC)NC(=O)[C@@H](N)CC(=O)O)CSSC[C@H](NC(=O)[C@H](CCCCN)NC(=O)CNC(=O)[C@H](Cc4ccccc4)NC(=O)[C@H]([C@@H](C)CC)NC(=O)[C@H](CO)NC(=O)CNC1=O)C(=O)N[C@@H](CCSC)C(=O)N[C@@H](CC(N)=O)C(=O)N[C@@H](CCCCN)C(=O)N[C@@H](CCCCN)C(=O)N3)C(=O)N[C@@H](CCCCN)C(=O)N[C@@H](CCC(N)=O)C(=O)N[C@@H](CCCCN)C(=O)N2 [Compound 6] (H-DMRCSASVECKQKCLKAIGSIFGKCMNKKCKCYPR-OH; disulfide 4-25, 10-30, 14-32)",0.34
3,"CC[C@H](C)[C@@H]1NC(=O)[C@H](C)NC(=O)[C@H](CCCCN)NC(=O)[C@H](CC(C)C)NC(=O)[C@@H]2CSSC[C@@H](C(=O)N[C@@H](Cc3ccc(O)cc3)C(=O)N3CCC[C@H]3C(=O)N[C@@H](CCCNC(=N)N)C(N)=O)NC(=O)[C@H](CCCCN)NC(=O)[C@@H]3CSSC[C@H](NC(=O)[C@H](CCC(=O)O)NC(=O)[C@H](C(C)C)NC(=O)[C@H](CO)NC(=O)[C@H](C)NC(=O)[C@H](CO)NC(=O)[C@@H](NC(=O)[C@H](CCCNC(=N)N)NC(=O)[C@H](CCSC)NC(=O)[C@H](CC(=O)O)NC(=O)[C@H](CCSC)NC(=O)[C@@H](N)CC(N)=O)CSSC[C@H](NC(=O)[C@H](CCCCN)NC(=O)CNC(=O)[C@H](Cc4ccccc4)NC(=O)[C@H]([C@@H](C)CC)NC(=O)[C@H](CO)NC(=O)CNC1=O)C(=O)N[C@@H](CCSC)C(=O)N[C@@H](CC(N)=O)C(=O)N[C@@H](CCCCN)C(=O)N[C@@H](CCCCN)C(=O)N3)C(=O)N[C@@H](CCCCN)C(=O)N[C@@H](CCC(N)=O)C(=O)N[C@@H](CCCCN)C(=O)N2 [Compound 7] (H-NMDMRCSASVECKQKCLKAIGSIFGKCMNKKCKCYPR-NH2; disulfide 6-27, 12-32, 16-34)",0.12
4,"CC[C@H](C)[C@@H]1NC(=O)[C@H](C)NC(=O)[C@H](CCCCN)NC(=O)[C@H](CC(C)C)NC(=O)[C@@H]2CSSC[C@@H](C(=O)N[C@@H](Cc3ccc(O)cc3)C(=O)N3CCC[C@H]3C(=O)N[C@@H](CCCNC(=N)N)C(=O)O)NC(=O)[C@H](CCCCN)NC(=O)[C@@H]3CSSC[C@H](NC(=O)[C@H](CCC(=O)O)NC(=O)[C@H](C(C)C)NC(=O)[C@H](CO)NC(=O)[C@H](C)NC(=O)[C@H](CO)NC(=O)[C@@H](NC(=O)[C@H](CCCNC(=N)N)NC(=O)[C@@H](NC(=O)[C@H](CC(=O)O)NC(=O)[C@H](CCSC)NC(=O)[C@@H](N)CC(N)=O)C(C)C)CSSC[C@H](NC(=O)[C@H](CCCCN)NC(=O)CNC(=O)[C@H](Cc4ccccc4)NC(=O)[C@H]([C@@H](C)CC)NC(=O)[C@H](CO)NC(=O)CNC1=O)C(=O)N[C@@H](CCSC)C(=O)N[C@@H](CC(N)=O)C(=O)N[C@@H](CCCCN)C(=O)N[C@@H](CCCCN)C(=O)N3)C(=O)N[C@@H](CCCCN)C(=O)N[C@@H](CCC(N)=O)C(=O)N[C@@H](CCCCN)C(=O)N2 [Compound 9] (H-NMDVRCSASVECKQKCLKAIGSIFGKCMNKKCKCYPR-OH; disulfide 6-27, 12-32, 16-34)",0.53
5,"CC[C@H](C)[C@@H]1NC(=O)[C@H](C)NC(=O)[C@H](CC(=O)O)NC(=O)[C@H](CCCCN)NC(=O)[C@@H]2CSSC[C@@H](C(=O)N[C@@H](Cc3ccc(O)cc3)C(=O)N3CCC[C@H]3C(=O)N[C@@H](CCCNC(=N)N)C(=O)O)NC(=O)[C@H](CCCCN)NC(=O)[C@@H]3CSSC[C@H](NC(=O)[C@H](CCC(=O)O)NC(=O)[C@H](C(C)C)NC(=O)[C@H](CO)NC(=O)[C@H](C)NC(=O)[C@H](CO)NC(=O)[C@@H](NC(=O)[C@H](CCCNC(=N)N)NC(=O)[C@H](CCSC)NC(=O)[C@H](CC(=O)O)NC(=O)[C@H](CCSC)NC(=O)[C@@H](N)CC(N)=O)CSSC[C@H](NC(=O)[C@H](CCCCN)NC(=O)CNC(=O)[C@H](Cc4ccccc4)NC(=O)[C@H]([C@@H](C)CC)NC(=O)[C@H](CO)NC(=O)CNC1=O)C(=O)N[C@@H](CCSC)C(=O)N[C@@H](CC(N)=O)C(=O)N[C@@H](CCCCN)C(=O)N[C@@H](CCCCN)C(=O)N3)C(=O)N[C@@H](CCCCN)C(=O)N[C@@H](CCC(N)=O)C(=O)N[C@@H](CCCCN)C(=O)N2 [Compound 10] (H-NMDMRCSASVECKQKCKDAIGSIFGKCMNKKCKCYPR-OH; disulfide 6-27, 12-32, 16-34)",0.57
6,"CC[C@H](C)[C@@H]1NC(=O)[C@H](C)NC(=O)[C@H](CCCCN)NC(=O)[C@H](CC(C)C)NC(=O)[C@@H]2CSSC[C@@H](C(=O)N[C@@H](Cc3ccc(O)cc3)C(=O)N3CCC[C@H]3C(=O)N[C@@H](CCCNC(=N)N)C(=O)O)NC(=O)[C@H](CCCCN)NC(=O)[C@@H]3CSSC[C@H](NC(=O)[C@H](CCC(=O)O)NC(=O)[C@H](C(C)C)NC(=O)[C@H](CO)NC(=O)[C@H](C)NC(=O)[C@H](CO)NC(=O)[C@@H](NC(=O)[C@H](CCCNC(=N)N)NC(=O)[C@H](CCSC)NC(=O)[C@H](CC(=O)O)NC(=O)[C@H](CCSC)NC(=O)[C@H](CC(N)=O)NC(=O)CNC(=O)CN)CSSC[C@H](NC(=O)[C@H](CCCCN)NC(=O)CNC(=O)[C@H](Cc4ccccc4)NC(=O)[C@H]([C@@H](C)CC)NC(=O)[C@H](CO)NC(=O)CNC1=O)C(=O)N[C@@H](CCSC)C(=O)N[C@@H](CC(N)=O)C(=O)N[C@@H](CCCCN)C(=O)N[C@@H](CCCCN)C(=O)N3)C(=O)N[C@@H](CCCCN)C(=O)N[C@@H](CCC(N)=O)C(=O)N[C@@H](CCCCN)C(=O)N2 [Compound 11] (H-GGNMDMRCSASVECKQKCLKAIGSIFGKCMNKKCKCYPR-OH; disulfide 8-29, 14-34, 18-36)",0.3
